Patent US6818446B2, “Compositions and methods for the analysis of mucin gene expression and identification of drugs having the ability to inhibit mucin gene expression” (The Regents of the University of California, priority 2001, dated 2004)
“Also recorded” adds a separate entry of the source.

Experiments:
[1] = test system: MUC5B promoter; experiment: MUC5B-b2 luciferase reporter activity in primary TBE cultures derived from transgenic mice; format: cell-based; details: transgenic mouse TBE cells; cytokine 10 ng/ml, 7 days
Experimental: The transgenic mice described in EXAMPLE 9 were used to isolate TBE cells, which were maintained in culture. The TBE cells were maintained in three culture conditions, which were control (no supplement), with interleukin-6 (IL-6) at a concentration of 10 ng/ml or with IL-17 at a concentration of 10 ng/ml. The cells were maintained in the presence of the cytokines for 7 days, harvested and cell extracts were prepared as described in EXAMPLE 8. The luciferase activity in each cell extract was determined, and normalized for total protein concentration of the extract samples.

[2] = test system: MUC5B promoter; experiment: Luciferase activity in stably transfected HBE1 cells carrying the MUC5B promoter reporter; format: cell-based, human; details: cytokine 10 ng/ml
Experimental: Experimental—The established cell line HBE1 was cultured in 35 mm dishes and grown to 60-80% confluence. These cells were cotransfected with either MUC-5B reporter construct and a second plasmid encoding the neomycin-resistance (neo) selectable marker. The chimeric reporter plasmids used in the transfections were purified using QIAGEN® plasmid isolation kits, and the cotransfections were done using Roche FuGENE 6™ transfection reagent (Roche Molecular Biochemicals, Indianapolis, Ind.) according to the manufacturer's instructions. In these transfections, 2.5 μg of MUC5B reporter plasmid DNA and 0.5 μg of the neomycin resistance marker plasmid per 35 mm culture dish were used for each transfection.
Following the cotransfection, cells were cultured for an additional 48 to 72 hours. At this time, the medium was replaced with fresh medium containing the neomycin analogue G-418 at a concentration of 100 μg/ml. The selection was maintained for approximately 21 days, at which time clones of resistant transfected cells were replated and maintained as continuous lines. Cell extracts were prepared and luciferase activity quantitated exactly as described in EXAMPLE 8, with the exception that cell extracts were normalized for total protein content, and not β-galactosidase activity. In addition, these cells were cultured in the absence or presence of IL-6 (10 ng/ml) or IL-17 (10 ng/ml).

[3] = test system: MUC5B-b2 promoter; experiment: Effect of culture conditions and retinoic acid on MUC5B-b2 promoter-reporter activity in primary human TBE cells; format: cell-based; details: retinoic acid 30 nM
Experimental: For studying the effects of culture conditions on the promoter-reporter gene activity, primary human TBE cultures were grown in 60 mm dishes and transfected with 1 μg of MUC5B promoter-luciferase construct DNA and 0.5 μg pSV-β-gal expression vector. One day following the transfection, cultures were passaged into either 35 mm tissue culture dishes or into collagen gel-coated 25 mm Transwell™ chambers (Coming-COSTAR Catalog Number 3506). Additionally, the cultures were maintained either in the absence or presence of supplemental all-trans-retinoic acid (30 nM). For Transwell™ cultures, chambers were maintained in an air-liquid interface for an additional three days. Cell extracts were prepared and luciferase and β-galactosidase activities were analyzed as described above. For each transfection, relative luciferase activity was expressed after normalization for β-galactosidase activity. The results are presented as a mean of relative activities from at least triplicate dishes, and data is collected from at least three independent experiments. Activity is expressed as units of luciferase activity per unit of β-gal activity (units/beta-gal). […] Results are expressed as “fold increase” of luciferase activity, comparing RA-treated and RA-untreated cultures, where the activity of the RA untreated culture is set to 1. […]

[4] = test system: MUC5B message; experiment: Northern blot analysis of MUC5B message in primary TBE cell cultures; details: primary human TBE cells, presence vs absence of 30 nM retinoic acid

| Molecule | MUC5B promoter activity (luciferase normalized for total protein) vs control without interleukin [1] | luciferase reporter activity in presence vs absence of cytokine [2] | MUC5B-b2 reporter gene activity, RA-treated vs RA-untreated, tissue culture dishes (TC) ([3]; TC) | MUC5B-b2 reporter gene activity, fold increase RA-treated vs RA-untreated, BICG conditions ([3]; collagen gel-coated Transwell chambers, air-liquid interface) | levels of MUC5B message in BI and BICG cultures ([4]; Transwell chambers (BI) or collagen gel-coated Transwell chambers (BICG)) | levels of MUC5B message in TC and CG cultures ([4]; tissue culture dishes (TC) or collagen gel coated dishes (CG)) |
| --- | --- | --- | --- | --- | --- | --- |
| IL-17: pro-inflammatory cytokine IL-17 added to cell cultures | significant upregulation | strongly induced; also recorded: upregulated |  |  |  |  |
| IL-6: pro-inflammatory cytokine interleukin-6 added to cell cultures | significant upregulation | strongly induced; also recorded: upregulated |  |  |  |  |
| CC1=C(/C=C/C(C)=C/C=C/C(C)=C/C(=O)O)C(C)(C)CCC1 [retinoic acid, all-trans-retinoic acid] |  |  | not affected | five-fold | greatly enhanced | unaffected |
